# Results from patent publication US20020151591A1, “Combination use of acetylcholinesterase inhibitors and GABAa inverse agonists for the treatment of cognitive disorders” (priority 2000, published 2002).
# System: scopolamine-induced retention deficit in male Sprague Dawley rats
# Assay: Scopolamine-induced memory deficit in the spatial water maze task
# Assay type: in vivo, rat
# Conditions: IV 5 minutes prior to scopolamine 0.125 mg/kg IP; sub-efficacious doses; retention tested one day after training; Fisher LSD p<0.05 vs PEG/scopolamine
# Method: Subjects: Animals used in these studies were naive male Sprague Dawley rats (SASCO St. Louis) weighing between 200-250 grams. Animals were housed in groups of three in a temperature (22° C.[…]) and humidity (40-70% relative humidity) controlled vivarium with a 12-hour light/dark cycle. Animals had ad lib access to food and water.
# Drugs: Aricept and said compound of Formula I were each dissolved in 50% polyethylene glycol (PEG), and scopolamine HCI (Sigma) was dissolved in 0.9% saline. Aricept and said compound of Formula I (alone or in combination) or 50% PEG was administered intravenously (IV) 5 minutes prior to scopolamine (0.125 mg/kg) or saline given intraperitoneally (IP). Training commenced 15 minutes after the IP injection. […]
# Procedure: An animal was initially placed on the platform in the tank for 20 seconds. […] For each trial during acquisition and retention, a computerized video tracking system recorded the latency (sec) to reach the submerged platform the total distance traveled (m) in the water maze, the number of zone (quadrant) transitions made, and the swim speed of the animal.
# Data Analysis: A one-way ANOVA was conducted on the latency to locate the platform during retention testing. Tests for significant differences between individual treatment groups were assessed using a Fisher LSD test (p<0.05).
smiles,measurement,value
"COc1cc2c(cc1OC)C(=O)C(CC1CCN(Cc3ccccc3)CC1)C2 (stereo not shown) [Aricept, donepezil]",attenuation of scopolamine-induced retention deficit (latency to locate the platform during retention testing),did not significantly attenuate
